Experimental data taken from patent US10906873B2, “Substituted cyclic amides as herbicides” (FMC Corporation, priority 2015, dated 2021).

Experiments:
Type in all cases: in vivo
[1] = tested on: foxtail, giant (giant foxtail, Setaria faberii); assay: Test A preemergence, foxtail, giant; settings: 0 to 100 scale
Summary of the method: (§1)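 Seeds sown in loam–sand blend received a directed soil spray preemergence; postemergence plants (2–10 cm, one- to two-leaf stage) were sprayed with test chemicals in non-phytotoxic solvent with surfactant. After about 10 d in greenhouse, injury was scored visually versus untreated controls, 0 (no effect) to 100 (complete control).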

[2] = tested on: foxtail, giant (giant foxtail, Setaria faberii); assay: Test A postemergence, foxtail, giant; settings: 0 to 100 scale
Summary of the method: as §1

[3] = tested on: galium (catchweed bedstraw, Galium aparine); assay: Test A postemergence, galium; settings: 0 to 100 scale
Summary of the method: as §1

[4] = tested on: kochia (Kochia scoparia); assay: Test A preemergence, kochia; settings: 0 to 100 scale
Summary of the method: as §1

[5] = tested on: corn (Zea mays); assay: Test A postemergence, corn; settings: 0 to 100 scale
Summary of the method: as §1

[6] = tested on: ducksalad (Heteranthera limosa); assay: Test B flooded paddy test, ducksalad; settings: Flood, scale of 0 to 100 where 0 is no effect and 100 is complete control, 13 to 15 d
Summary of the method: (§2)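 Plants at the 2-leaf stage were flooded to 3 cm above soil, and test compounds were applied directly into the paddy water, which was held at that depth throughout. After 13 to 15 d in a greenhouse, injury was rated visually against untreated controls on a 0–100 scale (0 no effect, 100 complete control).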

[7] = tested on: pigweed (Amaranthus retroflexus); assay: Test A postemergence, pigweed; settings: 0 to 100 scale
Summary of the method: as §1

[8] = tested on: pigweed (Amaranthus retroflexus); assay: Test A preemergence, pigweed; settings: 0 to 100 scale
Summary of the method: as §1

[9] = tested on: ragweed (common ragweed, Ambrosia elatior); assay: Test A preemergence, ragweed; settings: 0 to 100 scale
Summary of the method: as §1

[10] = tested on: barnyardgrass (Echinochloa crus-galli); assay: Test A preemergence, barnyardgrass; settings: 0 to 100 scale
Summary of the method: as §1

[11] = tested on: wheat (Triticum aestivum); assay: Test A postemergence, wheat; settings: 0 to 100 scale
Summary of the method: as §1

[12] = tested on: blackgrass (Alopecurus myosuroides); assay: Test A postemergence, blackgrass; settings: 0 to 100 scale
Summary of the method: as §1

[13] = tested on: barnyardgrass (Echinochloa crus-galli); assay: Test A postemergence, barnyardgrass; settings: 0 to 100 scale
Summary of the method: as §1

[14] = tested on: kochia (Kochia scoparia); assay: Test A postemergence, kochia; settings: 0 to 100 scale
Summary of the method: as §1

[15] = tested on: ragweed (common ragweed, Ambrosia elatior); assay: Test A postemergence, ragweed; settings: 0 to 100 scale
Summary of the method: as §1

[16] = tested on: rice (Oryza sativa); assay: Test B flooded paddy test, rice; settings: Flood, scale of 0 to 100 where 0 is no effect and 100 is complete control, 13 to 15 d
Summary of the method: as §2

[17] = tested on: ryegrass, It. (Italian ryegrass, Lolium multiflorum); assay: Test A postemergence, ryegrass, It.; settings: 0 to 100 scale
Summary of the method: as §1

[18] = tested on: ryegrass, It. (Italian ryegrass, Lolium multiflorum); assay: Test A preemergence, ryegrass, It.; settings: 0 to 100 scale
Summary of the method: as §1

[19] = tested on: barnyardgrass (Echinochloa crus-galli); assay: Test B flooded paddy test, barnyardgrass; settings: Flood, scale of 0 to 100 where 0 is no effect and 100 is complete control, 13 to 15 d
Summary of the method: as §2

[20] = tested on: sedge, umbrella (small-flower umbrella sedge, Cyperus difformis); assay: Test B flooded paddy test, sedge, umbrella; settings: Flood, scale of 0 to 100 where 0 is no effect and 100 is complete control, 13 to 15 d
Summary of the method: as §2

| Compound | Plant response rating, Foxtail, Giant ([1]; 125 g ai/ha) | Plant response rating, Foxtail, Giant ([1]; 500 g ai/ha) | Plant response rating, Foxtail, Giant ([2]; 125 g ai/ha) | Plant response rating, Foxtail, Giant ([2]; 500 g ai/ha) | Plant response rating, Galium ([3]; 125 g ai/ha) | Plant response rating, Galium ([3]; 500 g ai/ha) | Plant response rating, Kochia ([4]; 125 g ai/ha) | Plant response rating, Kochia ([4]; 500 g ai/ha) | Plant response rating, Corn ([5]; 125 g ai/ha) | Plant response rating, Corn ([5]; 500 g ai/ha) | Plant response rating, Pigweed ([7]; 125 g ai/ha) | Plant response rating, Pigweed ([7]; 500 g ai/ha) | Plant response rating, Pigweed ([8]; 125 g ai/ha) | Plant response rating, Pigweed ([8]; 500 g ai/ha) | Plant response rating, Ragweed ([9]; 125 g ai/ha) | Plant response rating, Ragweed ([9]; 500 g ai/ha) | Plant response rating, Barnyardgrass ([10]; 125 g ai/ha) | Plant response rating, Barnyardgrass ([10]; 500 g ai/ha) | Plant response rating, Wheat ([11]; 125 g ai/ha) | Plant response rating, Wheat ([11]; 500 g ai/ha) | also measured |
| --- | --- | --- | --- | --- | --- | --- | --- | --- | --- | --- | --- | --- | --- | --- | --- | --- | --- | --- | --- | --- | --- |
| O=C1NCC(/C=C/c2cccc(F)c2)C1C(=O)Nc1cccc(F)c1F (stereo not drawn) [Compound 30] | 60 | 90 | 40 | 80 | 0 | 20 | 70 | 80 | 0 | 20 | 0 | 0 | 0 | 0 | 0 | 0 | 50 | 90 | 0 | 20 | Plant response rating, Ducksalad ([6]; 250 g ai/ha): 95; Plant response rating, Blackgrass ([12]; 125 g ai/ha): 0; Plant response rating, Blackgrass ([12]; 500 g ai/ha): 0; Plant response rating, Barnyardgrass ([13]; 125 g ai/ha): 50; Plant response rating, Barnyardgrass ([13]; 500 g ai/ha): 80; Plant response rating, Kochia ([14]; 125 g ai/ha): 0; Plant response rating, Kochia ([14]; 500 g ai/ha): 0; Plant response rating, Ragweed ([15]; 125 g ai/ha): 0; Plant response rating, Ragweed ([15]; 500 g ai/ha): 0; Plant response rating, Rice ([16]; 250 g ai/ha): 15; Plant response rating, Ryegrass, It. ([17]; 125 g ai/ha): 0; Plant response rating, Ryegrass, It. ([17]; 500 g ai/ha): 0; Plant response rating, Ryegrass, It. ([18]; 125 g ai/ha): 0; Plant response rating, Ryegrass, It. ([18]; 500 g ai/ha): 0; Plant response rating, Barnyardgrass ([19]; 250 g ai/ha): 70; Plant response rating, Sedge, Umbrella ([20]; 250 g ai/ha): 0 |
| O=C1NCC(/C=C/c2ccccc2)C1C(=O)Nc1cccc(F)c1F (stereo not drawn) [Compound 33, N-(2,3-difluorophenyl)-2-oxo-4-[(1E)-2-phenylethenyl]-3-pyrrolidinecarboxamide] | 50 | 90 | 70 | 70 | 0 | 0 | 0 | 20 | 0 | 0 | 0 | 0 | 0 | 0 | 0 | 0 | 50 | 90 | 0 | 0 | Plant response rating, Ducksalad ([6]; 250 g ai/ha): 95; Plant response rating, Blackgrass ([12]; 125 g ai/ha): 0; Plant response rating, Blackgrass ([12]; 500 g ai/ha): 0; Plant response rating, Barnyardgrass ([13]; 125 g ai/ha): 50; Plant response rating, Barnyardgrass ([13]; 500 g ai/ha): 90; Plant response rating, Kochia ([14]; 125 g ai/ha): 0; Plant response rating, Kochia ([14]; 500 g ai/ha): 0; Plant response rating, Ragweed ([15]; 125 g ai/ha): 10; Plant response rating, Ragweed ([15]; 500 g ai/ha): 10; Plant response rating, Rice ([16]; 250 g ai/ha): 0; Plant response rating, Ryegrass, It. ([17]; 125 g ai/ha): 0; Plant response rating, Ryegrass, It. ([17]; 500 g ai/ha): 0; Plant response rating, Ryegrass, It. ([18]; 125 g ai/ha): 0; Plant response rating, Ryegrass, It. ([18]; 500 g ai/ha): 0; Plant response rating, Barnyardgrass ([19]; 250 g ai/ha): 40; Plant response rating, Sedge, Umbrella ([20]; 250 g ai/ha): 0 |
| O=C1NCC(Cc2ccc(F)c(F)c2)C1C(=O)Nc1cccc(F)c1F (stereo not drawn) [Compound 12] | 0 | 60 | 0 | 0 | 0 | 0 | 0 | 0 | 0 | 0 | 0 | 0 | 0 | 0 | 0 | 0 | 0 | 60 | 0 | 0 | Plant response rating, Ducksalad ([6]; 500 g ai/ha): 0; Plant response rating, Blackgrass ([12]; 125 g ai/ha): 0; Plant response rating, Blackgrass ([12]; 500 g ai/ha): 0; Plant response rating, Barnyardgrass ([13]; 125 g ai/ha): 0; Plant response rating, Barnyardgrass ([13]; 500 g ai/ha): 0; Plant response rating, Kochia ([14]; 125 g ai/ha): 0; Plant response rating, Kochia ([14]; 500 g ai/ha): 0; Plant response rating, Ragweed ([15]; 125 g ai/ha): 0; Plant response rating, Ragweed ([15]; 500 g ai/ha): 0; Plant response rating, Rice ([16]; 500 g ai/ha): 0; Plant response rating, Ryegrass, It. ([17]; 125 g ai/ha): 0; Plant response rating, Ryegrass, It. ([17]; 500 g ai/ha): 0; Plant response rating, Ryegrass, It. ([18]; 125 g ai/ha): 0; Plant response rating, Ryegrass, It. ([18]; 500 g ai/ha): 0; Plant response rating, Barnyardgrass ([19]; 500 g ai/ha): 0; Plant response rating, Sedge, Umbrella ([20]; 500 g ai/ha): 0 |
| O=C1NCC(C#Cc2ccc(F)cc2)C1C(=O)Nc1ccccc1F (stereo not drawn) [Compound 19] | 0 | 20 | 0 | 20 | 0 | 0 | 0 | 0 | 0 | 0 | 0 | 0 | 0 | 0 | 0 | 0 | 0 | 50 | 0 | 0 | Plant response rating, Ducksalad ([6]; 250 g ai/ha): 0; Plant response rating, Blackgrass ([12]; 125 g ai/ha): 0; Plant response rating, Blackgrass ([12]; 500 g ai/ha): 0; Plant response rating, Barnyardgrass ([13]; 125 g ai/ha): 0; Plant response rating, Barnyardgrass ([13]; 500 g ai/ha): 40; Plant response rating, Kochia ([14]; 125 g ai/ha): 0; Plant response rating, Kochia ([14]; 500 g ai/ha): 0; Plant response rating, Ragweed ([15]; 125 g ai/ha): 0; Plant response rating, Ragweed ([15]; 500 g ai/ha): 0; Plant response rating, Rice ([16]; 250 g ai/ha): 0; Plant response rating, Ryegrass, It. ([17]; 125 g ai/ha): 0; Plant response rating, Ryegrass, It. ([17]; 500 g ai/ha): 0; Plant response rating, Ryegrass, It. ([18]; 125 g ai/ha): 0; Plant response rating, Ryegrass, It. ([18]; 500 g ai/ha): 0; Plant response rating, Barnyardgrass ([19]; 250 g ai/ha): 0; Plant response rating, Sedge, Umbrella ([20]; 250 g ai/ha): 0 |
| Cc1cccc(C#CC2CNC(=O)C2C(=O)Nc2ccccc2F)c1 (stereo not drawn) [Compound 21] | 0 | 0 | 0 | 20 | 0 | 0 | 0 | 0 | 0 | 0 | 0 | 0 | 0 | 0 | 0 | 0 | 20 | 80 | 0 | 0 | Plant response rating, Ducksalad ([6]; 250 g ai/ha): 40; Plant response rating, Blackgrass ([12]; 125 g ai/ha): 0; Plant response rating, Blackgrass ([12]; 500 g ai/ha): 0; Plant response rating, Barnyardgrass ([13]; 125 g ai/ha): 0; Plant response rating, Barnyardgrass ([13]; 500 g ai/ha): 50; Plant response rating, Kochia ([14]; 125 g ai/ha): 0; Plant response rating, Kochia ([14]; 500 g ai/ha): 0; Plant response rating, Ragweed ([15]; 125 g ai/ha): 0; Plant response rating, Ragweed ([15]; 500 g ai/ha): 0; Plant response rating, Rice ([16]; 250 g ai/ha): 0; Plant response rating, Ryegrass, It. ([17]; 125 g ai/ha): 0; Plant response rating, Ryegrass, It. ([17]; 500 g ai/ha): 0; Plant response rating, Ryegrass, It. ([18]; 125 g ai/ha): 0; Plant response rating, Ryegrass, It. ([18]; 500 g ai/ha): 20; Plant response rating, Barnyardgrass ([19]; 250 g ai/ha): 0; Plant response rating, Sedge, Umbrella ([20]; 250 g ai/ha): 0 |
